Like-named read-outs stand apart in the source and are kept apart here.
Assay: clinical
Type: in vivo, human
Protocol: The lower limit of quantification (LLOQ) was 1 ng/ml in plasma and 2 ng/ml in urine and CSF, except for the 3‐month study where the method for CSF was more sensitive (LLOQ 0.1 ng/ml). Plasma PK parameters were calculated using actual recorded sampling times and non‐compartmental methods with Phoenix WinNonlin version 6.4 (Certara, Inc., Princeton, NJ, USA).
For further details, see the Appendix Table S10 in Appendix and the accompanying clinical protocols synopsis (Appendix Table S11).

[1] = single dose 1250 mg, adults (2), individual data points

C[C@@]1(c2nc(NC(=O)c3ncc(C(F)(F)F)cc3Cl)ccc2F)CO[C@@](C)(C(F)(F)F)C(N)=N1 [CNP520]
Tmax (human, plasma, oral, 2 mg, 3 months, Day 91, median (min–max)): 2.5 h
Cmax (human, plasma, oral, 2 mg, 3 months, Day 91, ≥ 60 years, mean (CV%)): 16.6 ng/mL
AUC(0-t) (human, plasma, oral, 2 mg, AUC 0–24h, 2 mg, 3 months, Day 91, mean (CV%)): 313 ng·h/mL
Tmax (human, plasma, oral, 10 mg, 3 months, Day 91, median (min–max)): 2.5 h
Cmax (human, plasma, oral, 10 mg, 3 months, Day 91, ≥ 60 years, mean (CV%)): 81 ng/mL
Tmax (human, plasma, oral, 10 mg, 14 days, Day 14, median (min–max)): 2.53 h
Cmax (human, plasma, oral, 10 mg, 14 days, Day 14, ≥ 60 years, mean (CV%)): 84.3 ng/mL
AUC(0-t) (human, plasma, oral, 10 mg, AUC 0–24h, 10 mg, 3 months, Day 91, mean (CV%)): 1500 ng·h/mL
AUC(0-t) (human, plasma, oral, 10 mg, AUC 0–24h, 10 mg, 14 days, Day 14, mean (CV%)): 1400 ng·h/mL
Cmax (human, plasma, oral, 10 mg, single dose 10 mg, adults (6), mean (%CV), read-out: Cmax): 20.9 ng/mL
Tmax (human, plasma, oral, 10 mg, single dose 10 mg, adults (6), median (min–max), read-out: Tmax): 4 h
AUC(0-inf) (human, plasma, oral, 10 mg, single dose 10 mg, adults (n = 5), mean (%CV)): 948 ng·h/mL
half-life (human, plasma, oral, 10 mg, single dose 10 mg, adults (n = 5), mean (%CV), read-out: T1/2 (converted)): 61.3 h
Cmax (human, plasma, oral, 10 mg, single dose 10 mg, adults ≥ 60 years (6), mean (%CV), read-out: Cmax): 16 ng/mL
Tmax (human, plasma, oral, 10 mg, single dose 10 mg, adults ≥ 60 years (6), median (min–max), read-out: Tmax): 4.02 h
AUC(0-inf) (human, plasma, oral, 30 mg, single dose 30 mg, adults (12), mean (%CV)): 3070 ng·h/mL
Cmax (human, plasma, oral, 30 mg, single dose 30 mg, adults (12), mean (%CV), read-out: Cmax): 65.7 ng/mL
half-life (human, plasma, oral, 30 mg, single dose 30 mg, adults (12), mean (%CV), read-out: T1/2 (converted)): 64.3 h
Tmax (human, plasma, oral, 30 mg, single dose 30 mg, adults (12), median (min–max), read-out: Tmax): 3.5 h
Tmax (human, plasma, oral, 35 mg, 3 months, Day 91, median (min–max)): 2.5 h
Cmax (human, plasma, oral, 35 mg, 3 months, Day 91, ≥ 60 years, mean (CV%)): 237 ng/mL
AUC(0-t) (human, plasma, oral, 35 mg, AUC 0–24h, 35 mg, 3 months, Day 91, mean (CV%)): 4450 ng·h/mL
AUC(0-t) (human, plasma, oral, 75 mg, AUC 0–72h, food effect, 75 mg Fasted (10), adults, mean (%CV)): 4450 ng·h/mL
AUC(0-t) (human, plasma, oral, 75 mg, AUC 0–72h, food effect, 75 mg Fed (10), adults, mean (%CV)): 4870 ng·h/mL
Cmax (human, plasma, oral, 75 mg, food effect, 75 mg Fasted (10), adults, mean (%CV), read-out: Cmax): 164 ng/mL
Tmax (human, plasma, oral, 75 mg, food effect, 75 mg Fasted (10), adults, median (min–max), read-out: Tmax): 3.5 h
Cmax (human, plasma, oral, 75 mg, food effect, 75 mg Fed (10), adults, mean (%CV), read-out: Cmax): 179 ng/mL
Tmax (human, plasma, oral, 75 mg, food effect, 75 mg Fed (10), adults, median (min–max), read-out: Tmax): 4.04 h
Tmax (human, plasma, oral, 85 mg, 3 months, Day 91, median (min–max)): 2.5 h
Cmax (human, plasma, oral, 85 mg, 3 months, Day 91, ≥ 60 years, mean (CV%)): 602 ng/mL
AUC(0-t) (human, plasma, oral, 85 mg, AUC 0–24h, 85 mg, 3 months, Day 91, mean (CV%)): 11200 ng·h/mL
Tmax (human, plasma, oral, 90 mg, 14 days, Day 14, median (min–max)): 3 h
Cmax (human, plasma, oral, 90 mg, 14 days, Day 14, ≥ 60 years, mean (CV%)): 581 ng/mL
AUC(0-t) (human, plasma, oral, 90 mg, AUC 0–24h, 90 mg, 14 days, Day 14, mean (CV%)): 9380 ng·h/mL
AUC(0-inf) (human, plasma, oral, 90 mg, single dose 90 mg, adults (6), mean (%CV)): 7190 ng·h/mL
Cmax (human, plasma, oral, 90 mg, single dose 90 mg, adults (6), mean (%CV), read-out: Cmax): 138 ng/mL
half-life (human, plasma, oral, 90 mg, single dose 90 mg, adults (6), mean (%CV), read-out: T1/2 (converted)): 66.2 h
Tmax (human, plasma, oral, 90 mg, single dose 90 mg, adults (6), median (min–max), read-out: Tmax): 3.5 h
Cmax (human, plasma, oral, 90 mg, single dose 90 mg, adults ≥ 60 years (6), mean (%CV), read-out: Cmax): 172 ng/mL
Tmax (human, plasma, oral, 90 mg, single dose 90 mg, adults ≥ 60 years (6), median (min–max), read-out: Tmax): 2.02 h
Tmax (human, plasma, oral, 300 mg, 14 days, Day 14, median (min–max)): 2.51 h
Cmax (human, plasma, oral, 300 mg, 14 days, Day 14, ≥ 60 years, mean (CV% 25.1)): 1710 ng/mL
AUC(0-t) (human, plasma, oral, 300 mg, AUC 0–24h, 300 mg, 14 days, Day 14, mean (CV%)): 28300 ng·h/mL
AUC(0-inf) (human, plasma, oral, 300 mg, single dose 300 mg, adults (6), mean (%CV)): 23500 ng·h/mL
Cmax (human, plasma, oral, 300 mg, single dose 300 mg, adults (6), mean (%CV), read-out: Cmax): 498 ng/mL
half-life (human, plasma, oral, 300 mg, single dose 300 mg, adults (6), mean (%CV), read-out: T1/2 (converted)): 57.9 h
Tmax (human, plasma, oral, 300 mg, single dose 300 mg, adults (6), median (min–max), read-out: Tmax): 6 h
Cmax (human, plasma, oral, 300 mg, single dose 300 mg, adults ≥ 60 years (18), mean (%CV), read-out: Cmax): 440 ng/mL
Tmax (human, plasma, oral, 300 mg, single dose 300 mg, adults ≥ 60 years (18), median (min–max), read-out: Tmax): 5.04 h
AUC(0-inf) (human, plasma, oral, 750 mg, single dose 750 mg, adults (6), mean (%CV)): 90100 ng·h/mL
Cmax (human, plasma, oral, 750 mg, single dose 750 mg, adults (6), mean (%CV), read-out: Cmax): 1150 ng/mL
half-life (human, plasma, oral, 750 mg, single dose 750 mg, adults (6), mean (%CV), read-out: T1/2 (converted)): 83.8 h
Tmax (human, plasma, oral, 750 mg, single dose 750 mg, adults (6), median (min–max), read-out: Tmax): 2.5 h
Cmax (human, plasma, oral, 750 mg, single dose 750 mg, adults ≥ 60 years (20), mean (%CV), read-out: Cmax): 1120 ng/mL
Tmax (human, plasma, oral, 750 mg, single dose 750 mg, adults ≥ 60 years (20), median (min–max), read-out: Tmax): 3 h
AUC(0-inf) (human, plasma, oral, 1250 mg, single dose 1250 mg, adults (2), individual data points): 168000 ng·h/mL
Cmax (human, plasma, oral, 1250 mg, single dose 1250 mg, adults (2), individual data points, read-out: Cmax): 2850 ng/mL
half-life (human, plasma, oral, 1250 mg, single dose 1250 mg, adults (2), individual data points, read-out: T1/2 (converted)): 76.4 h
Tmax (human, plasma, oral, 1250 mg, single dose 1250 mg, adults (2), individual data points, read-out: Tmax): 4 h
Tmax (human, plasma, oral, after dose, human pharmacokinetic studies, read-out: T max): 1 to 8 h
half-life (human, plasma, oral, healthy adult participants, single dose, read-out: mean terminal T 1/2): 61.3 to 83.8 h
AUCinf [1]: 184000 ng·h/mL
Cmax [1]: 2890 ng/mL
T1/2 [1]: 86.1 h
Tmax [1]: 8.00 h
unbound concentration of CNP520 in plasma (typically, at pharmacologically active doses in animals and humans): below 0.1 μM

— publication PMC6220303 (EMBO Molecular Medicine, 2018)
